As usually defined, the Ki is a measure of affinity in units of concentration, obtained from inhibition or displacement.

SMILES strings stand for the structures. Counter-ions that a name gives are not always drawn.

This assay concerns the target GABAa receptor. Description: GABAa receptor activity: inhibition of 3H-RO15-1788 (3H-Flumazenil) binding to rat cortical tissue. The conditions noted are these: 0.5 nM 3H-RO15-1788, 30 min at 4° C. As for the experimental part: The pharmaceutical utility of compounds of this invention are indicated by the following assay for GABAa receptor activity.
The assay is carried out as described in Thomas and Tallman (J. Bio. Chem. 156: 9838-9842, J. Neurosci. 3:433-440, 1983). Rat cortical tissue is dissected and homogenized in 25 volumes (w/v of 0.05M Tris HCl buffer (pH 7.4 at 4° C.). The tissue homogenate is centrifuged in the cold (4° C.) at 20,000×g for 20 minutes. The supernatant is decanted and the pellet is rehomogenized in the same volume of buffer and again centrifuged at 20,000×g. The supernatant is decanted and the pellet is frozen at -20° C. overnight. The pellet is then thawed and rehomogenized in 25 volume (original w/v) of buffer and the procedure is carried out twice. The pellet is finally resuspended in 50 volumes (w/v) of 0.05M Tris HCl buffer (pH 7.4 at […]).
Incubation contain 100 of tissue homogenate, […] of radioligand (0.5 nM ^3 H-RO15-1788 [^3 H-Flumazenil] specific activity 80 Ci/mmol), drug or blocker and buffer to a total volume of […]. Incubstion are carried for 30 min at 4° C. then are rapidly filtered through GFB filters to separate free and bound ligand. Filters are washed twice with fresh 0.05M Tris HCl buffer (pH 7.4 at 4° C.) and counted in a liquid scintillation counter. 1.0 mM diazepam is added to some tubes to determine nonspecific binding. Data are collected in triplicate determinations, averaged and % inhibition of total specific binding is calculated. Total Specific Binding=Total-Nonspecific. In some case, the amounts of unlabeled drugs is varied and total displacement curves of binding are carried. Data are converted to a form for the calculation of Ki and Hill Coefficient (nH).
As to `COc1ccc(-c2ncc3n2CN(C(=O)c2ccccc2)c2ccccc2-3)cc1` [Compound 53, 3-(4-Methoxyphenyl)-5,6-dihydro-6-benzoylimidazo-[1,5-c]quinazoline], the Ki came out at 7.8 nM.

Molecule `COc1ccc(-c2ncc3n2CN(C(=O)N2CCOCC2)c2ccccc2-3)cc1` [Compound 3, 3-(4-Methoxyphenyl)-5,6-dihydro-6-[(1-morpholino)-carbonyl]imidazo[1,5-c]quinazoline hydrochloride] had a Ki of 2.7 nM. For `O=C(N1CCCCCC1)N1Cn2c(cnc2-c2ccccc2)-c2ccccc21` [Compound 18, 3-Phenyl-5,6-dihydro-6-[(1-hexamethyleneimino)-carbonyl]imidazo[1,5-c]quinazoline hydrochloride], the Ki was found to be 12 nM. In the case of `COc1ccc(-c2ncc3n2CN(C(=O)c2ccccc2)c2ccccc2-3)c(F)c1` [Compound 72, 3-(2-Fluoro-4-methoxyphenyl)-5,6-dihydro-6-benzoyl-imidazo[1,5-c]quinazoline] it was 9.7 nM; in that of `COc1cccc(-c2ncc3n2CN(C(=O)N2CCCCC2)c2ccccc2-3)c1` [Compound 16, 3-(3-Methoxyphenyl)-5,6-dihydro-6-[(1-piperidino)-carbonyl]imidazo[1,5-]quinazoline hydrochloride], 17 nM. In turn, `COc1ccc(-c2ncc3n2CN(C(=O)N(C)C)c2ccccc2-3)cc1` [Compound 2, 3-(4-Methoxyphenyl)-5,6-dihydro-6-[(N,N-dimethyl-amino)carbonyl]imidazo[1,5-c]quinazoline hydrochloride] yielded a Ki of 4.7 nM. On to `CCn1c(=O)n2c(-c3ccccc3F)ncc2c2ccccc21` [Compound 76, 3-(2-Fluorophenyl)-5,6-dihydro-5-oxo-6-ethyl-imidazo[1,5-c]quinazoline], for which the affinity corresponds to a Ki of 124 nM.

On to `COc1ccc(-c2ncc3n2CN(C(=O)N2CCCCC2)c2ccccc2-3)cc1` [Compound 1, 3-(4-methoxyphenyl)-5,6-dihydro-6-[(1-piperidino)carbonyl]imidazo[1,5-c]quinazoline], for which the Ki was 6 nM.

In turn, `COc1ccc(-c2ncc3n2CN(C(C)=O)c2ccccc2-3)cc1` [Compound 49, 3-(4-methoxyphenyl)-5,6-dihydro-6-acetylimidazo[1,5-c]-quinazoline] had a Ki of 101 nM.

These data come from patent publication US5792766A (priority 1996, dated 1998).
